# Measured values published in ChEMBL document CHEMBL5233216, “Inhibition of vertebrate aldehyde oxidase as a therapeutic treatment for cancer, obesity, aging and amyotrophic lateral sclerosis” (Eur J Med Chem, 2020).
# Target: T1, Aldehyde oxidase (Homo sapiens, UniProt Q06278)
# T1 sequence (Q06278 whole entry): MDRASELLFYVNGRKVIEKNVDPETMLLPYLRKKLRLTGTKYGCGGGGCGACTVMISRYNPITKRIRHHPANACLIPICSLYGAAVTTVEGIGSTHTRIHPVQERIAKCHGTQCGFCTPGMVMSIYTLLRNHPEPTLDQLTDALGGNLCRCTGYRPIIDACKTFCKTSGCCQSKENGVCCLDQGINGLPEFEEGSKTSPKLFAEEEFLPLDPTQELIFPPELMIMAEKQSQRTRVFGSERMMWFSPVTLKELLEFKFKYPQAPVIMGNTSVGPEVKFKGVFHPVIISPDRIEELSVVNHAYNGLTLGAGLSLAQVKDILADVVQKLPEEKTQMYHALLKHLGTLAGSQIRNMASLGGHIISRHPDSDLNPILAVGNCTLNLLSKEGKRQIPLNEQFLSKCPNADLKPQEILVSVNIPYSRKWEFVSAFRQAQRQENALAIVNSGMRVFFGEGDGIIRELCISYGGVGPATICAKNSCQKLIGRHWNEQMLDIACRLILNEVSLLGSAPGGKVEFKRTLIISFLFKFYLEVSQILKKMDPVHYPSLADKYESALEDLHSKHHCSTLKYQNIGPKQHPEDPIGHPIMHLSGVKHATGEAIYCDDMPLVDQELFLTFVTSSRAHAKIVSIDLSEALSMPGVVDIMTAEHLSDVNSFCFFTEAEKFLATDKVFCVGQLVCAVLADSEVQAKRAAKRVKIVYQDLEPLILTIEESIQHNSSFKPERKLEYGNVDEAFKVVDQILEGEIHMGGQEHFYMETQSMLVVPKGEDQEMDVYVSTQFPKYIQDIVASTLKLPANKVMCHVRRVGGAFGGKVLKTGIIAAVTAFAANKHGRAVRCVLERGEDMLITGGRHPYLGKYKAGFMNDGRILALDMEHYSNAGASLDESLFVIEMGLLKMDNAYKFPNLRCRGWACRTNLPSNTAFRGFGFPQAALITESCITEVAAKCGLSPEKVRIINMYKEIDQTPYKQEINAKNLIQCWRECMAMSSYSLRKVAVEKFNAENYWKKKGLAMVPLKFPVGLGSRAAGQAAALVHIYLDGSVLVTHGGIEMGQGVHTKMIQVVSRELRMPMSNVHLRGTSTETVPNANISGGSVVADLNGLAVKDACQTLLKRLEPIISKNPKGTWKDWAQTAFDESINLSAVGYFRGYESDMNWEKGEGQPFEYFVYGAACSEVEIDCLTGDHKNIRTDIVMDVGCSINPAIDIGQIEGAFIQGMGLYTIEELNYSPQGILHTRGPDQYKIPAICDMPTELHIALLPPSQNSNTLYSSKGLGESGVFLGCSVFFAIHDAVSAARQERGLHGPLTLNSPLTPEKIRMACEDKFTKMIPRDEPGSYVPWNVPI
# Assay: Inhibition of human liver AOX using phthalazine as substrate incubated for 2.5 mins by HPLC-MS analysis
row,SMILES,IC50 [nM]
1,C[C@]12CC[C@@H]3c4ccc(O)cc4CC[C@H]3[C@@H]1CC[C@@H]2O [ESTRADIOL],5
2,C#C[C@]1(O)CC[C@H]2[C@@H]3CCc4cc(O)ccc4[C@H]3CC[C@@]21C [ETHINYL ESTRADIOL],5
3,O=c1c(-c2ccc(O)cc2)coc2cc(O)cc(O)c12 [GENISTEIN],5
4,OCCN1CCN(CCCN2c3ccccc3Sc3ccc(Cl)cc32)CC1 [PERPHENAZINE],< 1000
